pIC50: −log10 of the molar value. Values after ≈ are worked out from the molar mass of the structure shown.
Tests used:
[1] = Anticancer activity against human NMC-797 cells after 48 hrs by viability assay; assay type: functional, cell-based; conditions: NMC-797, 48 h
[2] = Anticancer activity against human MJ cells after 48 hrs by viability assay; assay type: functional, cell-based
Escherichia coli = test: Antimicrobial activity against Escherichia coli K-12 ATCC 25404 assessed as growth inhibition after 20 hrs by two-fold microdilution method; assay type: functional, organism-based; conditions: K-12 ATCC 25404, 20 h
Bacillus subtilis = test: Antimicrobial activity against Bacillus subtilis Marburg ATCC 6051 assessed as growth inhibition after 20 hrs by two-fold microdilution method; assay type: functional, organism-based; conditions: Marburg ATCC 6051, 20 h
[3] = tested on: Mycolicibacterium smegmatis; test: Antimicrobial activity against Mycobacterium smegmatis strain MC2 155 ATCC 700084 assessed as growth inhibition after 20 hrs by two-fold microdilution method; assay type: functional, organism-based; conditions: MC2 155 ATCC 700084, 20 h

## CC1[C@@H](c2cccc([N+](=O)[O-])c2)O[C@@H](c2cccc([N+](=O)[O-])c2)O[C@@]12C=CC(=O)O2 (mixture of isomers)
[1]
  pIC50: 4.92
[2]
  pIC50: < 4.70

## O=C1C=C[C@]2(C[C@@H](c3ccccc3[N+](=O)[O-])O[C@@H](c3ccccc3[N+](=O)[O-])O2)O1 (racemic)
[1]
  pIC50: 7.19
[2]
  pIC50: 6.77

## O=C1C=C[C@]2(C[C@@H](c3ccc([N+](=O)[O-])cc3)O[C@@H](c3ccc([N+](=O)[O-])cc3)O2)O1 (racemic)
[1]
  pIC50: 7.59
[2]
  pIC50: 6.72

## O=C1C=C[C@]2(C[C@@H](c3cccc([N+](=O)[O-])c3)O[C@@H](c3cccc([N+](=O)[O-])c3)O2)O1 (racemic)
[1]
  pIC50: 7.33
[2]
  pIC50: 6.77
Escherichia coli
  pIC50: < 3.30
  MIC95: > 500 µM
Bacillus subtilis
  pIC50: 3.67
  MIC95: 425 µM (≈ 169 µg/mL)
[3]
  pIC50: < 3.30
  MIC95: > 500 µM

## O=C1C=C[C@]2(C[C@@H](c3cccc(C(F)(F)F)c3)O[C@@H](c3cccc(C(F)(F)F)c3)O2)O1 (racemic)
[1]
  pIC50: 7.52
[2]
  pIC50: 6.72

## O=C1C=C[C@]2(C[C@@H](c3cccc(Cl)c3)O[C@@H](c3cccc(Cl)c3)O2)O1 (racemic)
[1]
  pIC50: 7.09
[2]
  pIC50: 6.59
Escherichia coli
  pIC50: < 3.30
  MIC95: > 500 µM
Bacillus subtilis
  pIC50: 3.39
  MIC95: > 500 µM
[3]
  pIC50: < 3.30
  MIC95: > 500 µM

## O=C1C=C[C@]2(C[C@@H](c3ccccc3)O[C@@H](c3ccccc3)O2)O1 (racemic)
[1]
  pIC50: 6.05
[2]
  pIC50: 5.77
Escherichia coli
  pIC50: < 3.30
  MIC95: > 500 µM
Bacillus subtilis
  pIC50: 3.65
  MIC95: > 500 µM
[3]
  pIC50: < 3.30
  MIC95: > 500 µM

## O=C1C=C[C@]2(C[C@@H](c3coc([N+](=O)[O-])c3)O[C@@H](c3coc([N+](=O)[O-])c3)O2)O1 (racemic)
[1]
  pIC50: 6.47
[2]
  pIC50: 6.09

## O=C1C=C[C@]2(CCOCO2)O1 (racemic)
[1]
  pIC50: 5.07
[2]
  pIC50: < 4.70

## O=C1C=C[C@]2(C[C@@H](c3c(F)c(F)c(F)c(F)c3F)O[C@@H](c3c(F)c(F)c(F)c(F)c3F)O2)O1 (racemic)
[1]
  pIC50: 6.24
[2]
  pIC50: 5.70

## O=C1C=C[C@]2(C[C@@H](c3ccc4ccccc4c3[N+](=O)[O-])O[C@@H](c3ccc4ccccc4c3[N+](=O)[O-])O2)O1 (racemic)
[1]
  pIC50: 5.12
[2]
  pIC50: < 4.70

## O=C1C=C[C@]2(C[C@@H](c3cccc([N+](=O)[O-])c3)O[C@@H](c3ccccc3)O2)O1 (racemic)
[1]
  pIC50: 6.80
[2]
  pIC50: 6.43

## O=C1C=C[C@]2(C[C@@H](c3ccccc3)O[C@@H](c3cccc([N+](=O)[O-])c3)O2)O1 (racemic)
[1]
  pIC50: 6.92
[2]
  pIC50: 6.47

## O=C1CC[C@]2(C[C@@H](c3cccc(C(F)(F)F)c3)O[C@@H](c3cccc(C(F)(F)F)c3)O2)O1 (racemic)
[1]
  pIC50: < 4.70
[2]
  pIC50: < 4.70
